Measurements reported in ChEMBL document CHEMBL1132907, “The design and synthesis of the high efficacy, non-peptide CCK1 receptor agonist PD170292” (Bioorg Med Chem Lett, 2000).

Tests used:
[1] = biological target: T1, Cholecystokinin receptor type A (Rattus norvegicus, UniProt P30551); assay: Compound was evaluated for the binding affinity towards rat pancreatic Cholecystokinin type A receptor
T1 sequence (P30551 whole entry): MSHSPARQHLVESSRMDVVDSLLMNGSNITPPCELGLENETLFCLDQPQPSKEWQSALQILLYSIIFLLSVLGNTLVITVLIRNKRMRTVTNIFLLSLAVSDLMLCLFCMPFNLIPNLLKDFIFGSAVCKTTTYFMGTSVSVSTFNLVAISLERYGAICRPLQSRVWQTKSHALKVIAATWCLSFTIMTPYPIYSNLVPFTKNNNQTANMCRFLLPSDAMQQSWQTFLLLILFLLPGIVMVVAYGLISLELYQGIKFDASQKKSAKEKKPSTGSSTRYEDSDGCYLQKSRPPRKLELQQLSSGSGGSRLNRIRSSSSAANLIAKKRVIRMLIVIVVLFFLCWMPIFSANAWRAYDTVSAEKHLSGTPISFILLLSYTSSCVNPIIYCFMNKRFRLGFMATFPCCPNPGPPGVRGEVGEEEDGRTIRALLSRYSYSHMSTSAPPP

Rattus norvegicus = organism: Rattus norvegicus; assay: Compound was evaluated for the stimulation of amylase secretion in isolated rat pancreatic acini
[2] = biological target: T2, Gastrin/cholecystokinin type B receptor (Mus musculus, UniProt P56481); assay: Binding affinity towards Cholecystokinin type B receptor in mouse cortex membrane; format: cell membranes
T2 sequence (P56481 whole entry): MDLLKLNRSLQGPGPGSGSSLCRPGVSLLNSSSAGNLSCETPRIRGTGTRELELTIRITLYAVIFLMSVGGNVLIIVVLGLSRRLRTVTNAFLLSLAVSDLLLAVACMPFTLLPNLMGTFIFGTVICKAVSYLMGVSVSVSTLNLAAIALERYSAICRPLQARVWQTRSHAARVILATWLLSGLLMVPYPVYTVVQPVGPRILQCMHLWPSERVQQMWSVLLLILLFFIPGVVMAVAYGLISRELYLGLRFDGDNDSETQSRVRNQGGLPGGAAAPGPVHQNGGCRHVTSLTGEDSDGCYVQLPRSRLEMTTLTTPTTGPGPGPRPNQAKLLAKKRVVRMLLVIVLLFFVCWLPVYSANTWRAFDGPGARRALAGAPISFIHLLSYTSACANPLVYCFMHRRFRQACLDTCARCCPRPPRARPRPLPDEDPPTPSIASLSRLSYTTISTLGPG

Jurkat [3] = assay: Compound was evaluated for calcium mobilization in Jurkat cells; format: functional, cell-based; conditions: Homo sapiens
Jurkat [4] = assay: Compound was tested for [Ca2+] mobilization in Jurkat cells at 1 uM; Inactive; format: functional, cell-based, Homo sapiens

IC50 [1]	EC50 (Rattus norvegicus)	IC50 [2]	IC50 (Jurkat [3])	EC50 (Jurkat [4])	Structure (SMILES)	EC50 (Jurkat [3])
150 nM	480 nM	3600 nM			O=C(CC(Cc1c[nH]c2ccccc12)(NC(=O)OC1C2CC3CC(C2)CC1C3)C(=O)NCCc1ccccc1)NCCCCNC(=O)Nc1ccccc1Cl (configuration not stated)	
1.2 nM	5 nM	6.7 nM	40 nM	Not Active	Cc1ccccc1NC(=O)NCCCC[C@@H](CC(=O)O)NC(=O)[C@@](C)(Cc1c[nH]c2ccccc12)NC(=O)OC1C2CC3CC(C2)CC1C3 (some centres not stated) [PD-170292]	
75 nM		0.083 nM			CC(Cc1c[nH]c2ccccc12)(NC(=O)OC1C2CC3CC(C2)CC1C3)C(=O)N[C@H](CC(=O)O)Cc1ccc(F)cc1 (single isomer, unassigned)	

Structure (SMILES)	IC50 [1]	EC50 (Rattus norvegicus)	IC50 [2]	IC50 (Jurkat [3])	EC50 (Jurkat [4])	EC50 (Jurkat [3])
CSCC[C@H](NC(=O)[C@H](Cc1ccc(OS(=O)(=O)O)cc1)NC(=O)[C@@H](N)CC(=O)O)C(=O)NCC(=O)N[C@@H](Cc1c[nH]c2ccccc12)C(=O)N[C@@H](CCSC)C(=O)N[C@@H](CC(=O)O)C(=O)N[C@@H](Cc1ccccc1)C(N)=O [SINCALIDE]		0.02 nM				2 nM
